Measurements: ChEMBL document CHEMBL1681655, “Identification of a new series of non-peptidic NK3 receptor antagonists” (Bioorg Med Chem Lett, 2011)

Tests used:
[1] = biological target: T1, Neuromedin-K receptor (Homo sapiens, UniProt P29371); experiment: Displacement of [3H]Lu AE93103 from human NK3 receptor expressed in BHK cells; assay type: cell-based
T1 sequence (P29371 whole entry): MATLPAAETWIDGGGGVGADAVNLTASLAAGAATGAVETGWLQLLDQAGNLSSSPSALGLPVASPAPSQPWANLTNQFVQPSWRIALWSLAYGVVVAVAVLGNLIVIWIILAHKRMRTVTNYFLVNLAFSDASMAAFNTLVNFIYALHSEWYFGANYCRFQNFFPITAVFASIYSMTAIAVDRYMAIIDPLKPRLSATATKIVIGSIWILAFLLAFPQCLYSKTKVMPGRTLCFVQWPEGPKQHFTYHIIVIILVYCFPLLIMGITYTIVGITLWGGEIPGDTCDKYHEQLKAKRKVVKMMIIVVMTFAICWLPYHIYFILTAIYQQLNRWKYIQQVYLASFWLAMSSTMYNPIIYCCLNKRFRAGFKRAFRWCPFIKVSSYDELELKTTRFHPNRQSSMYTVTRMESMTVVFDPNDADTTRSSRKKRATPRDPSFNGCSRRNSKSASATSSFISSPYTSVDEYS

[2] = system: Liver microsomes; experiment: Intrinsic clearance in human liver microsomes; assay type: ADME, Microsome
[3] = Apparent permeability of the compound in human Caco2 cells; assay type: ADME, cell-based; settings: caco-2
[4] = system: Caco-2; experiment: Efflux ratio of permeability from […] in human Caco2 cells; assay type: ADME, cell-based
[5] = biological target: Substance-P receptor (Homo sapiens, UniProt P25103); experiment: Displacement of [125I]SP from human cloned NK1 receptor
Chain of Substance-P receptor (P25103 whole entry): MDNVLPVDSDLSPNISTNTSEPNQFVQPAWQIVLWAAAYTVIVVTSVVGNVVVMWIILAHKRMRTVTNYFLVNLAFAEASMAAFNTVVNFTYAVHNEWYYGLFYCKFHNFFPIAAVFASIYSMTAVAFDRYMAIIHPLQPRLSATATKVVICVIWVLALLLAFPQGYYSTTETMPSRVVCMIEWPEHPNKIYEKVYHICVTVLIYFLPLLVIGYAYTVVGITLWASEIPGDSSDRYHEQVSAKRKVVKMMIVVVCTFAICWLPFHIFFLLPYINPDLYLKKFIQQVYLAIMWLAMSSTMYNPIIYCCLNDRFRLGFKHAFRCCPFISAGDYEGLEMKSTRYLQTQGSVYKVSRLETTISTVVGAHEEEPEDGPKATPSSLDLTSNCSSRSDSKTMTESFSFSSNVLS

[6] = biological target: T2, Substance-K receptor (Homo sapiens, UniProt P21452); experiment: Displacement of [125I]NKA from human cloned NK2 receptor
T2 sequence (P21452 whole entry): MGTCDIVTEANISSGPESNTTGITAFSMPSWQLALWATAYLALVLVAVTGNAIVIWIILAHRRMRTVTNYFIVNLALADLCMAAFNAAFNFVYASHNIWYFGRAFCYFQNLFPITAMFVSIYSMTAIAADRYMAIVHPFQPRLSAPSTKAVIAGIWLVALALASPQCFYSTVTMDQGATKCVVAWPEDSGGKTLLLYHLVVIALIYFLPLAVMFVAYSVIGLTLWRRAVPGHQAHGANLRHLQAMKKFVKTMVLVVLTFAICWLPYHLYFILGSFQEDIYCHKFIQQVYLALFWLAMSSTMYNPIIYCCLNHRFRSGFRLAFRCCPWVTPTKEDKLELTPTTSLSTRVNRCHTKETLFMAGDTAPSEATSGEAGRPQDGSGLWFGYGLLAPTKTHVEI

[7] = Ratio of drug level in brain to plasma in sc dosed gerbils after 90 mins; assay type: ADME, organism-based; settings: gerbillinae, read-out: BPR
[8] = system: Gerbillinae; experiment: Reversal of senktide-induced explorative behavior in sc dosed gerbils compound pretreated 60 mins before senktide induction by […] assay; assay type: functional
[9] = Oral bioavailability in rat; assay type: ADME, organism-based; settings: in vivo
[10] = system: Liver microsomes; experiment: Intrinsic clearance in rat liver microsomes; assay type: ADME, Microsome
[11] = Clearance in rat; assay type: ADME, organism-based; settings: in vivo

SMILES | Ki [1] | CL [2] | Papp [3] | Ratio [4] | Ki [5] | Ki [6] | Kp at 1.5 h [7] | ED50 [8] | bioavailability [9] | CL [10] | clearance [11]
CNC(=O)NC1(c2ccccc2)CCN(C[C@@H]2C[C@@]2(C(=O)N(C)Cc2ccccc2)c2ccc(Cl)c(Cl)c2)CC1 | 5.6 nM | 6.8 L/min | 0.6 ×10⁻⁶ cm/s | 42 |  |  |  |  |  |  | 
CN(Cc1ccccc1)C(=O)[C@@]1(c2ccc(Cl)c(Cl)c2)C[C@H]1CN1CCC(NS(C)(=O)=O)(c2ccccc2)CC1 | 7.8 nM | 15 L/min | 0.1 ×10⁻⁶ cm/s | 120 |  |  |  |  |  |  | 
CN(Cc1ccc(F)cc1)C(=O)[C@@]1(c2ccc(Cl)c(Cl)c2)C[C@H]1CN1CCN(C(=O)CN2CCCCC2)CC1 | 7.3 nM | 10 L/min | 2.9 ×10⁻⁶ cm/s | 4.2 |  |  |  |  |  |  | 
CC(=O)NC1(c2ccccc2)CCN(C[C@@H]2C[C@@]2(C(=O)N(C)Cc2ccccc2)c2ccc(Cl)c(Cl)c2)CC1 | 5.9 nM | 3.5 L/min | 5.6 ×10⁻⁶ cm/s | 2.6 | 130 nM | 88 nM |  |  |  |  | 
CN(C)C(=O)CCN1CCN(C[C@@H]2C[C@@]2(C(=O)N(C)Cc2ccc(F)cc2)c2ccc(Cl)c(Cl)c2)CC1 | 17 nM | 8.5 L/min | 28 ×10⁻⁶ cm/s | 1.1 |  |  |  |  |  |  | 
CC(C)NC[C@@H]1C[C@@]1(C(=O)N(C)Cc1ccc(F)cc1)c1ccc(Cl)c(Cl)c1 | 140 nM | 0.9 L/min | 11 ×10⁻⁶ cm/s | 1.5 |  |  |  |  |  |  | 
CN(Cc1ccccc1)C(=O)[C@@]1(c2ccc(Cl)c(Cl)c2)C[C@H]1CN1CCC(C(=O)N2CCCCC2)(c2ccccc2)CC1 | 6.1 nM | > 20 L/min | 0.3 ×10⁻⁶ cm/s | 17 |  |  |  |  |  |  | 
CN(Cc1ccc(F)cc1)C(=O)[C@@]1(c2ccc(Cl)c(Cl)c2)C[C@H]1CN1CCN(S(=O)(=O)N(C)C)CC1 | 7.6 nM | > 20 L/min | 25 ×10⁻⁶ cm/s | 1.5 | 340 nM | 75 nM | 1.9 | 14.2 mg/kg | < 5% | 210 mL/min | 108 mL/min/kg
CN(Cc1ccccc1)C(=O)[C@@]1(c2ccc(Cl)c(Cl)c2)C[C@H]1CN1CCC(c2ccccc2)(N(C)C(=O)C(N)=O)CC1 | 3.6 nM | 6.9 L/min | 1.3 ×10⁻⁶ cm/s | 13 |  |  |  |  |  |  | 
CC(=O)N(C)C1(c2ccccc2)CCN(C[C@@H]2C[C@@]2(C(=O)N(C)Cc2ccccc2)c2ccc(Cl)c(Cl)c2)CC1 | 4.2 nM | 19 L/min | 0.8 ×10⁻⁶ cm/s | 12 |  |  |  |  |  |  | 
COC(=O)NC1(c2ccccc2)CCN(C[C@@H]2C[C@@]2(C(=O)N(C)Cc2ccccc2)c2ccc(Cl)c(Cl)c2)CC1 | 1.5 nM | 6.3 L/min | 0.4 ×10⁻⁶ cm/s | > 100 |  |  |  |  |  |  | 
CN(Cc1ccc(F)cc1)C(=O)[C@@]1(c2ccc(Cl)c(Cl)c2)C[C@H]1CN1CCN(CC(=O)N2CCCC2)CC1 | 1.8 nM | 12 L/min | 27 ×10⁻⁶ cm/s | 1.3 |  |  |  |  |  |  | 
CN(Cc1ccc(F)cc1)C(=O)[C@@]1(c2ccc(Cl)c(Cl)c2)C[C@H]1CN1CCN(C(=O)CN2CCOCC2)CC1 | 3.3 nM | 16 L/min | 35 ×10⁻⁶ cm/s | 1.5 |  |  |  |  |  |  | 
CCCNC[C@@H]1C[C@@]1(C(=O)N(C)Cc1ccc(F)cc1)c1ccc(Cl)c(Cl)c1 | 150 nM | 0.9 L/min | 5.4 ×10⁻⁶ cm/s | 2.7 |  |  |  |  |  |  | 
